Laboratory results reported in US11352394B2, “Cyclic cell penetrating peptides comprising beta-hairpin motifs and methods of making and using thereof” (Ohio State Innovation Foundation, priority 2016, dated 2022).
Several values for one entry are separate records, joined by “and”; a condition that tells them apart may be missing. Identical values can stand only once. Bridge positions count the residues as written; N and C are the ends. Square brackets hold non-standard residues; d marks the D form. Ends that are not written are not given here. 2Nal = N[C@@H](Cc1ccc2ccccc2c1)C(=O)O; d2Nal = N[C@H](Cc1ccc2ccccc2c1)C(=O)O

System: HeLa cells
Assay: Cellular (cytosolic) uptake of NF-labeled peptides by flow cytometry (MFI)
Assay type: cell-based
Settings: for Cellular Uptake (MFI^NF, %), cytosolic delivery efficiency of CPPs without beta-hairpin moiety: relative to CPP 1 (100%), mean ± S.D. of three independent experiments; for Cellular Uptake (MFINF, %): 5 μM NF-labeled peptide, relative to CPP1 (100%); for Cellular Uptake (MFINF, %) / Cellular entry / delivery efficiency (in words): flow cytometry; for Improvement of cytosolic entry efficiency relative to BH4: D-amino acid diastereomers of BH4
Procedure: HeLa cells were treated with 5 μM peptide for 2 h, and their cell uptake efficiencies were determined by flow cytometry analysis. The mean fluorescence intensity (MFI) values derived from cytometry analyses reflect the amounts of peptides inside the cytosol and nucleus, whereas any NF-labeled peptide entrapped inside the acidic endosomes are invisible under the experimental conditions (Id.; Qian, Z et al. Chem. Commun. 2015, 51, 2162-2165).
The binding affinity of BH23 (unlabeled) for the Grb2 SH2 domain was then determined by examining its ability to compete with the FAM-labeled ligand for binding to the Grb2 SH2 domain by fluorescence polarization (FP). […] Next, BH23 was labeled with NF at the Asn side chain through a miniPEG-Lys linker and its cytosolic entry efficiency was quantitated by treating HeLa cells with 5 μM of the labeled peptide for 2 h before flow cytometry analysis. […] BH23 was also similarly labeled at the Asn side chain with FAM and its entry into HeLa cells was examined by live-cell confocal microscopy. […] Two control peptides (BH24 and BH25) were also prepared for cellular assays. BH24 and BH25 are structurally similar to BH23, except that BH24 contained a Tyr instead of the pY residue (FIG. 11), whereas in BH25 the two hydrophobic residues critical for cellular uptake (Nal-arg) were replaced with Ala-ala (FIG. 12).
BHT1 and BHT2 were labeled with naphthofluorescein (NF) and their cytosolic uptake into HeLa cells was determined by flow cytometry (Table 10).
Additional cell penetrating compounds were prepared and tested for cytosolic delivery. In these compounds there was no beta-hairpin turn creating moiety.

Row | Substance | Cellular Uptake (MFINF, %) (HeLa cells, 2 h) [%] | Improvement of cytosolic entry efficiency relative to BH4 (HeLa cells) | other results
1 | 285 (CFWRRRRC; disulfide 1-8) [Peptide 285] | – | – | Cellular Uptake (MFI^NF, %), cytosolic delivery efficiency of CPPs without beta-hairpin moiety: 49%
2 | 286 (CWWWRRRC; disulfide 1-8) [Peptide 286] | – | – | Cellular Uptake (MFI^NF, %), cytosolic delivery efficiency of CPPs without beta-hairpin moiety: 135%
3 | cyclo(A-A-F-R-R-p-P-R-R-Φ-A-A-A-Q)-miniPEG-K(NF) (cyclo(AAFRR[dP]PRR[2Nal]AAAQ); not fully specified (residue 14); printed as cyclo(A-A-F-R-R-p-P-R-R-Φ-A-A-A-Q)-miniPEG-K(NF)) [BH2] | 24 ± 1 | – | –
4 | cyclo(A-A-F-Φ-F-p-P-R-R-R-A-A-A-Q)-miniPEG-K(NF) (cyclo(AAF[2Nal]F[dP]PRRRAAAQ); not fully specified (residue 14); printed as cyclo(A-A-F-Φ-F-p-P-R-R-R-A-A-A-Q)-miniPEG-K(NF)) [BH3] | 30 ± 6 | – | –
5 | cyclo(A-A-F-Φ-R-p-P-R-R-F-A-A-A-Q)-miniPEG-K(NF) (cyclo(AAF[2Nal]R[dP]PRRFAAAQ); not fully specified (residue 14); printed as cyclo(A-A-F-Φ-R-p-P-R-R-F-A-A-A-Q)-miniPEG-K(NF)) [BH4] | 73 ± 6 | – | Cellular entry / delivery efficiency (in words) (HeLa cells): taken up most efficiently
6 | cyclo(A-A-F-Φ-R-p-P-R-R-R-A-A-A-Q)-miniPEG-K(NF) (cyclo(AAF[2Nal]R[dP]PRRRAAAQ); not fully specified (residue 14); printed as cyclo(A-A-F-Φ-R-p-P-R-R-R-A-A-A-Q)-miniPEG-K(NF)) [BH1] | 66 ± 12 | – | –
7 | cyclo(A-A-F-Φ-R-p-P-R-r-F-A-A-A-Q)-miniPEG-K(NF) (cyclo(AAF[2Nal]R[dP]PR[dR]FAAAQ); not fully specified (residue 14); printed as cyclo(A-A-F-Φ-R-p-P-R-r-F-A-A-A-Q)-miniPEG-K(NF)) [BH7] | 363 ± 213 | 5 fold | –
8 | cyclo(A-A-F-Φ-R-p-P-r-R-F-A-A-A-Q)-miniPEG-K(NF) (cyclo(AAF[2Nal]R[dP]P[dR]RFAAAQ); not fully specified (residue 14); printed as cyclo(A-A-F-Φ-R-p-P-r-R-F-A-A-A-Q)-miniPEG-K(NF)) [BH5] | 102 ± 45 | only minor effect | –
9 | cyclo(A-A-F-Φ-r-p-P-R-R-F-A-A-A-Q)-miniPEG-K(NF) (cyclo(AAF[2Nal][dR][dP]PRRFAAAQ); not fully specified (residue 14); printed as cyclo(A-A-F-Φ-r-p-P-R-R-F-A-A-A-Q)-miniPEG-K(NF)) [BH6] | 431 ± 169 | 6 fold | –
10 | cyclo(A-A-F-φ-R-p-P-R-R-F-A-A-A-Q)-miniPEG-K(NF) (cyclo(AAF[d2Nal]R[dP]PRRFAAAQ); not fully specified (residue 14); printed as cyclo(A-A-F-φ-R-p-P-R-R-F-A-A-A-Q)-miniPEG-K(NF)) [BH8] | 235 | 3 fold | –
11 | cyclo(A-E-T-G-E-F-L-F-Φ-r-p-P-R-R-F-L-Q)-miniPEG-K(NF) (cyclo(AETGEFLF[2Nal][dR][dP]PRRFLQ); not fully specified (residue 17); printed as cyclo(A-E-T-G-E-F-L-F-Φ-r-p-P-R-R-F-L-Q)-miniPEG-K(NF)) [BH12] | 575 ± 239 | – | Cytosolic entry efficiency, fold higher than CPP1 (HeLa cells): 5.8 fold
12 | cyclo(AFΦPRRFQ)-miniPEG-K(NF) [BHT1] | – | – | Cellular Uptake (MFI^NF, %) of β-hairpin transporters (HeLa cells, 5 μM peptide, 2 h, DMEM with 10% FBS and 1% ABS, relative to CPP9 (100%)): 88% and 88 ± 11%
13 | cyclo(D-A-F-Φ-r-p-P-R-R-F-D-A-D-Q)-miniPEG-K(NF) (cyclo(DAF[2Nal][dR][dP]PRRFDADQ); not fully specified (residue 14); printed as cyclo(D-A-F-Φ-r-p-P-R-R-F-D-A-D-Q)-miniPEG-K(NF)) [BH10] | 44 ± 19 | – | Cellular entry / delivery efficiency (in words) (HeLa cells): lowest delivery efficiency
